# Results: patent publication US9012431B2, “Boron-containing small molecules as anti-inflammatory agents” (Anacor Pharmaceuticals, Inc., priority 2008, dated 2015)
# Where a name gives a salt, the structure may show the parent alone.
# Tests used:
# TNF-α = test: Cytokine assay, TNF-α release from PBMC; type: cell-based; settings: Homo sapiens, PBMC, 24 h, 1 μg/mL LPS, supernatant at 24 hours
# Outline: (§1)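 Human PBMC (frozen, thawed), RPMI 1640 + 10% FBS; compound at 10, 1, 0.1, 0.01 μM from 10 mM DMSO stock, n=3; cytokine release read.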
# [1] = tested on: CD-1 (Crl.) derived male mice; test: Phorbol Ester Induced Mouse Ear Edema Model; type: in vivo; settings: topical, 6 h
# Experimental: 1. In Vivo Anti-Inflammation Activity in Phorbol Ester Induced Mouse Ear Edema Model
# […] Dexamethasone (1 mg/ear×2) used as the positive control was administered topically to test animals using the same application schedule. Ear swelling was then measured by a Dyer model micrometer gauge at 6 hours after PMA application as an index of inflammation. Percent inhibition was calculated according to the formula: [(Ic−It)/Ic]×100%, where Ic and It refer to increase of ear thickness (mm) in control and treated mice, respectively.
# IL-5 = test: Cytokine assay, IL-5 release from PBMC; type: cell-based; settings: human PBMC, 20 ug/mL PHA, supernatant at 48 hours
# Outline: as §1
# IL-10 = test: Cytokine assay, IL-10 release from PBMC; type: cell-based; settings: human PBMC, 20 ug/mL PHA, supernatant at 48 hours
# Outline: as §1
# [2] = tested on: T1, PDE4 partially purified from human U-937 myeloid leukemia cells; test: PDE4 Assay (enzyme from U-937 cells, [3H]cAMP); type: biochemical; settings: PDE4 from U-937 cells, Tris buffer pH 7.5, 20 minutes at 25° C.
# T1 construct: PDE4 partially purified from human U-937 myeloid leukemia cells was used
# IFN-γ = test: Cytokine assay, IFN-γ release from PBMC; type: cell-based; settings: human PBMC, 20 ug/mL PHA, supernatant at 24 hours
# Outline: as §1
# IL-2 = test: Cytokine assay, IL-2 release from PBMC; type: cell-based; settings: human PBMC, 20 ug/mL PHA, supernatant at 24 hours
# Outline: as §1
# [3] = 1 mg/ear × 2 topical, Acetone:Ethanol/1:1, ear swelling 6 hours after PMA
# [4] = 1 mg/ear topical, Acetone:Ethanol/1:1, ear swelling 6 hours after PMA
structure (smiles),measurement,setting,value
"N#Cc1ccc(Oc2ccc3c(c2)COB3O)cc1O [D10, 5-(4-Cyano-3-hydroxyphenoxy)-1,3-dihydro-1-hydroxy-2,1-benzoxaborole]",IC50,TNF-α,< 1 µM
same,inhibition in vivo at 1 mg,[1]; [3],60 to 90%
same,IC50,IL-5,4 to 10 µM
same,IC50,IL-10,1 to 4 µM
same,IC50,[2],1 to 4 µM
same,IC50,IFN-γ,4 to 10 µM
same,IC50,IL-2,4 to 10 µM
"N#Cc1ccc(Oc2ccc3c(c2)COB3O)c(O)c1 [D14, 5-(4-Cyano-2-hydroxyphenoxy)-1,3-dihydro-1-hydroxy-2,1-benzoxaborole]",IC50,TNF-α,< 1 µM
same,inhibition in vivo at 0.05 mg,"[1]; 0.05 mg/ear × 2 topical, 95% Ethanol, ear swelling 6 hours after PMA",< 30%
same,inhibition in vivo at 0.17 mg,"[1]; 0.17 mg/ear × 2 topical, 95% Ethanol, ear swelling 6 hours after PMA",< 30%
same,inhibition in vivo at 0.51 mg,"[1]; 0.51 mg/ear × 2 topical, 95% Ethanol, ear swelling 6 hours after PMA",< 30%
same,inhibition in vivo at 1 mg,"[1]; 1 mg/ear × 2 topical, 95% Ethanol, ear swelling 6 hours after PMA",< 30%
same,inhibition in vivo at 1 mg,[1]; [3],< 30%
same,IC50,IL-5,< 1 µM
same,IC50,IL-10,1 to 4 µM
same,IC50,[2],< 1 µM
same,IC50,IFN-γ,< 1 µM
same,IC50,IL-2,< 1 µM
"N#Cc1ccc(Oc2ccc3c(c2)COB3O)c(CO)c1 [D24, 5-[4-Cyano-2-(hydroxymethyl)phenoxy]-1,3-dihydro-1-hydroxy-2,1-benzoxaborole]",IC50,TNF-α,1 to 4 µM
same,inhibition in vivo at 1 mg,[1]; [3],60 to 90%
"CN1CCN(C(=O)COc2cc(C#N)ccc2Oc2ccc3c(c2)COB3O)CC1 [D29, 4-(2-(5-cyano-2-(1-hydroxy-1,3-dihydrobenzo[c][1,2]oxaborol-5-yloxy)phenoxy)acetyl)-1-methylpiperazine hydrochloride]",IC50,TNF-α,< 1 µM
same,inhibition in vivo at 1 mg,[1]; [3],< 30%
same,IC50,IL-5,< 1 µM
same,IC50,IL-10,> 10 µM
same,IC50,[2],< 1 µM
same,IC50,IFN-γ,< 1 µM
same,IC50,IL-2,< 1 µM
"N#Cc1ccc(Oc2ccc3c(c2)COB3O)c(OCc2ccccn2)c1 [D31, 2-((5-cyano-2-(1-hydroxy-1,3-dihydrobenzo[c][1,2]oxaborol-5-yloxy)phenoxy)methyl)pyridine hydrochloride]",IC50,TNF-α,1 to 4 µM
same,inhibition in vivo at 1 mg,[1]; [3],30 to 60%
"N#Cc1ccc(Oc2ccc3c(c2)COB3O)c(CN2CCOCC2)c1 [D32, 4-(5-cyano-2-1-hydroxy-1,3-dihydrobenzo[c][1,2]oxaborol-5-yloxy)benzyl)morpholine hydrochloride]",IC50,TNF-α,< 1 µM
same,inhibition in vivo at 1 mg,[1]; [4],< 30%
same,inhibition in vivo at 1 mg,[1]; [3],< 30%
same,IC50,IL-5,< 1 µM
same,IC50,IL-10,< 1 µM
same,IC50,[2],< 1 µM
same,IC50,IFN-γ,< 1 µM
same,IC50,IL-2,< 1 µM
"CN1CCN(Cc2cc(C#N)ccc2Oc2ccc3c(c2)COB3O)CC1 [D33, 1-(5-cyano-2-(1-hydroxy-1,3-dihydrobenzo[c][1,2]oxaborol-5-yloxy)benzyl)-4-methylpiperazine-1,4-diium]",IC50,TNF-α,< 1 µM
same,inhibition in vivo at 1 mg,[1]; [4],< 30%
same,IC50,IL-5,< 1 µM
same,IC50,IL-10,< 1 µM
same,IC50,[2],< 1 µM
same,IC50,IFN-γ,< 1 µM
same,IC50,IL-2,< 1 µM
"CN(C)Cc1cc(C#N)ccc1Oc1ccc2c(c1)COB2O [D34, 1-(5-cyano-2-(1-hydroxy-1,3-dihydrobenzo[c][1,2]oxaborol-5-yloxy)phenyl)-N,N-dimethylmethanaminium]",IC50,TNF-α,1 to 4 µM
same,inhibition in vivo at 1 mg,[1]; [4],< 30%
same,IC50,IL-5,1 to 4 µM
same,IC50,IL-10,1 to 4 µM
same,IC50,[2],1 to 4 µM
same,IC50,IFN-γ,< 1 µM
same,IC50,IL-2,< 1 µM
"COC(=O)c1ccc(Oc2ccc3c(c2)COB3O)c(F)c1 [D50, 5-(2-Fluoro-4-methoxycarbonylphenoxy)-1-hydroxy-2,1-benzoxaborole]",IC50,TNF-α,< 1 µM
same,inhibition in vivo at 1 mg,[1]; [3],60 to 90%
same,IC50,IL-5,1 to 4 µM
same,IC50,IL-10,4 to 10 µM
same,IC50,[2],< 1 µM
same,IC50,IFN-γ,< 1 µM
same,IC50,IL-2,< 1 µM
"CCNC(=O)c1ccc(Oc2ccc3c(c2)COB3O)nc1 [D63, N-Ethyl-6-(1-hydroxy-1,3-dihydrobenzo[c][1,2]oxaborol-5-yloxy) nicotinamide]",IC50,TNF-α,< 1 µM
same,inhibition in vivo at 1 mg,[1]; [3],< 30%
same,IC50,IL-5,1 to 4 µM
same,IC50,IL-10,1 to 4 µM
same,IC50,[2],< 1 µM
same,IC50,IFN-γ,1 to 4 µM
same,IC50,IL-2,< 1 µM
"COC(=O)c1ccc(Oc2ccc3c(c2)COB3O)nc1 [D65, Methyl 6-(1-hydroxy-1,3-dihydrobenzo[c][1,2]oxaborol-5-yloxy)nicotinate]",IC50,TNF-α,< 1 µM
same,inhibition in vivo at 1 mg,[1]; [3],30 to 60%
same,IC50,IL-5,< 1 µM
same,IC50,IL-10,< 1 µM
same,IC50,[2],< 1 µM
same,IC50,IFN-γ,< 1 µM
same,IC50,IL-2,< 1 µM
"O=Cc1ccc(Oc2ccc3c(c2)COB3O)nc1 [D69, 6-(1-Hydroxy-1,3-dihydrobenzo[c][1,2]oxaborol-5-yloxy)nicotinaldehyde]",IC50,TNF-α,1 to 4 µM
same,inhibition in vivo at 1 mg,"[1]; 1 mg/ear × 2 topical, vehicle not given, ear swelling 6 hours after PMA",30 to 60%
same,IC50,[2],< 1 µM
same,IC50,IFN-γ,1 to 4 µM
same,IC50,IL-2,1 to 4 µM
"CN(CCO)c1nc(Oc2ccc3c(c2)COB3O)ccc1C#N [D115, 6-(1-Hydroxy-1,3-dihydro-benzo[c][1,2]oxaborol-5-yloxy)-2-[(2-hydroxy-ethyl)-methyl-amino]-nicotinonitrile]",IC50,TNF-α,< 1 µM
same,IC50,IL-5,< 1 µM
same,IC50,IL-10,4 to 10 µM
same,IC50,[2],< 1 µM
same,IC50,IFN-γ,< 1 µM
same,IC50,IL-2,< 1 µM
"COc1nc(Oc2ccc3c(c2)COB3O)ncc1C#N [D116, 2-(1-Hydroxy-1,3-dihydro-benzo[c][1,2]oxaborol-5-yloxy)-4-methoxy-pyrimidine-5-carbonitrile]",IC50,TNF-α,< 1 µM
same,IC50,IL-5,< 1 µM
same,IC50,IL-10,1 to 4 µM
same,IC50,[2],< 1 µM
same,IC50,IFN-γ,< 1 µM
same,IC50,IL-2,< 1 µM
"N#Cc1cnc(Oc2ccc3c(c2)COB3O)cc1OCCOC1CCCCO1 (centres unmarked) [D118, 6-(1-Hydroxy-1,3-dihydro-benzo[c][1,2]oxaborol-5-yloxy)-4-[2-(tetrahydro-pyran-2-yloxy)-ethoxy]-nicotinonitrile]",IC50,TNF-α,< 1 µM
same,IC50,IL-5,< 1 µM
same,IC50,IL-10,1 to 4 µM
same,IC50,[2],< 1 µM
same,IC50,IFN-γ,< 1 µM
same,IC50,IL-2,< 1 µM
"N#Cc1cnc(Oc2ccc3c(c2)COB3O)cc1OCCO [D119, 6-(1-Hydroxy-1,3-dihydro-benzo[c][1,2]oxaborol-5-yloxy)-4-(2-hydroxy-ethoxy)-nicotinonitrile]",IC50,TNF-α,< 1 µM
same,IC50,IL-5,< 1 µM
same,IC50,IL-10,< 1 µM
same,IC50,[2],< 1 µM
same,IC50,IFN-γ,< 1 µM
same,IC50,IL-2,< 1 µM
"CCOc1cc(Oc2ccc3c(c2)COB3O)ncc1C#N [D120, 4-Ethoxy-6-(1-hydroxy-1,3-dihydro-benzo[c][1,2]oxaborol-5-yloxy)-nicotinonitrile]",IC50,TNF-α,< 1 µM
same,IC50,IL-5,< 1 µM
same,IC50,IL-10,< 1 µM
same,IC50,[2],< 1 µM
same,IC50,IFN-γ,< 1 µM
same,IC50,IL-2,< 1 µM
"N#Cc1cnc(Oc2ccc3c(c2)COB3O)c(O)c1 [D123, 5-Hydroxy-6-(1-hydroxy-1,3-dihydro-benzo[c][1,2]oxaborol-5-yloxy)-nicotinonitrile]",IC50,TNF-α,< 1 µM
same,IC50,IL-5,1 to 4 µM
same,IC50,IL-10,1 to 4 µM
same,IC50,[2],< 1 µM
same,IC50,IFN-γ,< 1 µM
same,IC50,IL-2,< 1 µM
"N#Cc1ccc(Oc2ccc3c(c2)COB3O)nc1OCC(F)(F)F [D125, 6-(1-Hydroxy-1,3-dihydro-benzo[c][1,2]oxaborol-5-yloxy)-2-(2,2,2-trifluoro-ethoxy)-nicotinonitrile]",IC50,TNF-α,< 1 µM
same,IC50,IL-5,< 1 µM
same,IC50,IL-10,< 1 µM
same,IC50,[2],< 1 µM
same,IC50,IFN-γ,< 1 µM
same,IC50,IL-2,< 1 µM
"CC(=O)OCCOc1nc(Oc2ccc3c(c2)COB3O)ccc1C#N [D126, 2-[3-cyano-6-(1-hydroxy-1,3-dihydro-benzo[c][1,2]oxaborol-5-yloxy)-pyridin-2-yloxy]-ethyl acetate]",IC50,TNF-α,< 1 µM
same,IC50,IL-5,< 1 µM
same,IC50,IL-10,< 1 µM
same,IC50,[2],< 1 µM
same,IC50,IFN-γ,< 1 µM
same,IC50,IL-2,< 1 µM
"N#Cc1ccc(Oc2ccc3c(c2)COB3O)nc1OCC(F)F [D127, 2-(2,2-Difluoro-ethoxy)-6-(1-hydroxy-1,3-dihydro-benzo[c][1,2]oxaborol-5-yloxy)-nicotinonitrile]",IC50,TNF-α,< 1 µM
same,IC50,IL-5,< 1 µM
same,IC50,IL-10,< 1 µM
same,IC50,[2],< 1 µM
same,IC50,IFN-γ,< 1 µM
same,IC50,IL-2,< 1 µM
"CC(C)Oc1nc(Oc2ccc3c(c2)COB3O)ccc1C#N [D128, 6-(1-Hydroxy-1,3-dihydro-benzo[c][1,2]oxaborol-5-yloxy)-2-isopropoxy-nicotinonitrile]",IC50,TNF-α,< 1 µM
same,IC50,IL-5,< 1 µM
same,IC50,IL-10,< 1 µM
same,IC50,[2],< 1 µM
same,IC50,IFN-γ,< 1 µM
same,IC50,IL-2,< 1 µM
"N#Cc1ccc(Oc2ccc3c(c2)COB3O)nc1N [D130, 2-amino-6-(1-hydroxy-1,3-dihydro-benzo[c][1,2]oxaborol-5-yloxy)-nicotinonitrile]",IC50,TNF-α,< 1 µM
same,IC50,IL-5,< 1 µM
same,IC50,IL-10,< 1 µM
same,IC50,[2],< 1 µM
same,IC50,IFN-γ,< 1 µM
same,IC50,IL-2,< 1 µM
"CCCOc1nc(Oc2ccc3c(c2)COB3O)ccc1C#N [D131, 6-(1-Hydroxy-1,3-dihydro-benzo[c][1,2]oxaborol-5-yloxy)-2-propoxy-nicotinonitrile]",IC50,TNF-α,< 1 µM
same,IC50,IL-5,< 1 µM
same,IC50,IL-10,< 1 µM
same,IC50,[2],< 1 µM
same,IC50,IFN-γ,< 1 µM
same,IC50,IL-2,< 1 µM
